This note sets out measurements from US12338206B2, “Compounds and their uses as thyroid hormone receptor agonists” (Nanjing Ruijie Pharma Co., Ltd., priority 2020, dated 2025).

Structures are written as SMILES. Where only a bound is given, the exact number is not on record here.

One assay has as its target TRα LBD (Homo sapiens, UniProt P10827). The experiment in a line: In vitro thyroid hormone receptor binding assay (TR-FRET coactivator assay), TRα LBD. Conditions: Biotin-SRC2-2, 1 hour at room temperature. Here is the method:
(§1) In Vitro Thyroid Hormone Receptor Binding Assay
(§2) The interaction between the compounds of present invention and Human Thyroid Receptor (TR) are evaluated by Time-Resolved Fluorescence Resonance Energy Transfer (TR-FRET) competition assay. FRET describes a radiation-free energy transfer between two chromophores: a donor fluorophore in its excited state can transfer energy to an acceptor fluorophore in close proximity (typically <10 nm). In contrast to standard FRET, TR-FRET unites time-resolved fluorescence (TRF) and the FRET principle. TRF use a long-lifetime lanthanide chelate as the donor species, while lanthanide chelates are unique in that their excited-state lifetime can be on the order of a millisecond or longer. Suitable neighbors for FRET are known in the art and can be obtained. The assay was adopted from the manual of LanthaScreen™ TR-FRET Thyroid Receptor beta Coactivator Assay kit from Invitrogen.
(§3) The assay is performed in following steps: first, prepare reaction buffer containing 50mMTris-HCl (pH7.4) with 100 mM NaCl, 1mMEDTA, 50mMKF, 1mMDTT, 1mMMgCl2, 10% glycerol, 0.01% NP-40, 0.1% BSA. Second, use the buffer to prepare the appropriate dilution series of the test and reference compounds. The3,3′,5-Triiodothyronine (T3) was used aspositive control agonist. Third, add 5 μl of 4× compoundserial dilution and 5 μl TRa LBD (4×, 4 nM) (or 5 μl TRβ LBD, 4×, 2 nM) into 384-well plate (784075, greiner). Then, add 10 μl of a solution consist of 400 nM Biotin-SRC2-2 (2×) and anti-GST Eu (1:200, 2×) and 50 nM anti-biotin-d2 (2×) in 1× reaction buffer to initiate the reaction. Centrifuge the plates at 1000 g for 1 min and then incubate 1 hour at room temperature protected from light. Finally, read the plate at wavelengths of 665 nm and 615nmonEnvision2104 plate reader.
(§4) A ratio (Ratio665 nm/615 nm−Ratiobackground) is calculated for each well. Percentage of activity, as well as EC50 was calculated. Effect-dose curve was plotted. Relative selectivity was calculated as the ratio of EC50TRα/EC50TRβ.
A general note: Time-resolved FRET reads energy transfer from a long-lived donor to a nearby acceptor.

The next assay concerns the target T1, TRβ LBD (Homo sapiens, UniProt P10828).
T1 construct: (or 5 μl TRβ LBD, 4×, 2 nM)
T1 sequence (P10828 217-461 limits assumed): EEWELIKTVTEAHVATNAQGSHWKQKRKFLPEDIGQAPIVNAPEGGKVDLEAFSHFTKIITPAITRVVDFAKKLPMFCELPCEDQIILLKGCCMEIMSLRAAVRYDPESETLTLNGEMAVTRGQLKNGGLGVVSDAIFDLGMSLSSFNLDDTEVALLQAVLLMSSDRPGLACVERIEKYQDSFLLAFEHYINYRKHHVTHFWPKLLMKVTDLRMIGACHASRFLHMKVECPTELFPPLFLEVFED
The experiment in a line: In vitro thyroid hormone receptor binding assay (TR-FRET coactivator assay), TRβ LBD. Conditions: for EC50: TR-FRET, TRβ LBD, Biotin-SRC2-2, 1 hour at room temperature; for Relative Selectivity TR-α/TR-β: ratio of EC50 TRα/EC50 TRβ, TR-FRET assay. Here is the method:
as §1, §2, §3, §4

TRα LBD, sequence (P10827 163-410 isoform P10827-2 limits assumed, other chains not shown): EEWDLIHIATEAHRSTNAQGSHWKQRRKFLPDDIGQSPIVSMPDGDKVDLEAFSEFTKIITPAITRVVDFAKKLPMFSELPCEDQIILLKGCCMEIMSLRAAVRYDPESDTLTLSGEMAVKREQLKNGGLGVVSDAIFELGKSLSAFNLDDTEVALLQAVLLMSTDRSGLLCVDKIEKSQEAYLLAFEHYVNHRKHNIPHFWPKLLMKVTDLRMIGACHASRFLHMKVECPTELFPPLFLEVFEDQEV

As to `Cc1cc(OCC(=O)NS(C)(=O)=O)cc(C)c1Cc1ccc(O)c(C(C)C)c1` [Compound I1, 2-(4-(4-hydroxy-3-isopropylbenzyl)-3,5-dimethylphenoxy)-N-(methylsulfonyl)acetamide], the EC50 (in general, the concentration that produces a half-maximal response) at TRα LBD came out at 6.77 nM; at TRβ LBD, 17.3 nM. Further, on TRβ LBD, the “Relative Selectivity TR-α/TR-β” value is recorded as 0.3915.

As for `Cc1cc(OCc2cc(O)no2)cc(C)c1Cc1ccc(O)c(C(C)C)c1` [Compound I2, 5-((4-(4-hydroxy-3-isopropylbenzyl)-3,5-dimethylphenoxy)methyl) isoxazol-3-ol], the EC50 is 7.37 nM on TRα LBD and 16.2 nM at TRβ LBD. The “Relative Selectivity TR-α/TR-β” value on TRβ LBD is 0.4560.

Take `CC(C)c1cc(Oc2ccc(-n3nc(C#N)c(=O)[nH]c3=O)cc2Cl)cnc1O` [Compound I5, 2-(3-chloro-4-((5-isopropyl-6-oxo-1,6-dihydropyridin-3-yl)oxy)phenyl)-3,5-dioxo-2,3,4,5-tetrahydro-1,2,4-triazine-6-carbonitrile]: the EC50 at TRα LBD and on TRβ LBD was above 10000 nM throughout.

Turning to `Cc1cc(-n2nc(C#N)c(=O)[nH]c2=O)cc(C)c1Oc1cnc(O)c(C(C)C)c1` [Compound I6, 2-(4-((5-isopropyl-6-oxo-1,6-dihydropyridin-3-yl)oxy)-3,5-dimethylphenyl)-3,5-dioxo-2,3,4,5-tetrahydro-1,2,4-triazine-6-carbonitrile], the values for the EC50 at TRα LBD and on TRβ LBD were above 10000 nM and 1980 nM, respectively. For the same compound, on TRβ LBD, the “Relative Selectivity TR-α/TR-β” value is above 5.05.

Take `CC(C)c1cc(Oc2c(F)cc(-n3nc(C#N)c(=O)[nH]c3=O)cc2F)c[nH]c1=O` [Compound I7, 2-(3,5-difluoro-4-((5-isopropyl-6-oxo-1,6-dihydropyridin-3-yl)oxy)phenyl)-3,5-dioxo-2,3,4,5-tetrahydro-1,2,4-triazine-6-carbonitrile]: the EC50 at TRα LBD and at TRβ LBD was above 10000 nM each time.

`Cc1c[nH]c2ncc(Oc3c(Cl)cc(-n4nc(C#N)c(=O)[nH]c4=O)cc3Cl)cc12` [Compound I8, 2-(3,5-dichloro-4-((3-methyl-1H-pyrrolo[2,3-b]pyridin-5-yl)oxy)phenyl)-3,5-dioxo-2,3,4,5-tetrahydro-1,2,4-triazine-6-carbonitrile]: the EC50 on TRα LBD was above 10000 nM. Moreover, on TRβ LBD, a half-maximal response (EC50) required 2890 nM and the “Relative Selectivity TR-α/TR-β” value is above 3.46.

Regarding `N#Cc1nn(-c2cc(Cl)c(Oc3cnc4[nH]ccc4c3)c(Cl)c2)c(=O)[nH]c1=O` [Compound I9, 2-(4-((1H-pyrrolo[2,3-b]pyridin-5-yl)oxy)-3,5-dichlorophenyl)-3,5-dioxo-2,3,4,5-tetrahydr o-1,2,4-triazine-6-carbonitrile], the 50% effective concentration (EC50) on TRα LBD and at TRβ LBD was above 10000 nM in each case.

As for `N#Cc1nn(-c2cc(Cl)c(Oc3cnc(O)c(C4CC4)c3)c(Cl)c2)c(=O)[nH]c1=O` [Compound I11, 2-(3,5-dichloro-4-((5-cyclopropyl-6-oxo-1,6-dihydropyridin-3-yl)oxy)phenyl)-3,5-dioxo-2,3,4,5-tetrahydro-1,2,4-triazine-6-carbonitrile], the EC50 at TRα LBD was above 10000 nM; at TRβ LBD, 754 nM.

As for `N#Cc1nn(-c2cc(Cl)c(Oc3ccc4[nH]cnc4c3)c(Cl)c2)c(=O)[nH]c1=O` [Compound I13, 2-(4-((1H-benzo[d]imidazol-5-yl)oxy)-3,5-dichlorophenyl)-3,5-dioxo-2,3,4,5-tetrahydro-1,2,4-triazine-6-carbonitrile], the concentration for a half-maximal effect (EC50) on TRα LBD was 12200 nM; on TRβ LBD, 2610 nM. Also, the “Relative Selectivity TR-α/TR-β” value at TRβ LBD was 4.67.

As for `Cn1c(=O)[nH]c2ccc(Oc3c(Cl)cc(-n4nc(C#N)c(=O)[nH]c4=O)cc3Cl)cc21` [Compound I14, 2-(3,5-dichloro-4-((3-methyl-2-oxo-2,3-dihydro-1H-benzo[d]imidazol-5-yl)oxy)phenyl)-3,5-dioxo-2,3,4,5-tetrahydro-1,2,4-triazine-6-carbonitrile], at TRα LBD, the EC50 was determined as 172 nM. On TRβ LBD, the EC50 is 46 nM and the “Relative Selectivity TR-α/TR-β” value was found to be 3.70.

Consider `N#Cc1nn(-c2cc(Cl)c(Oc3ccc4[nH]c(=O)[nH]c4c3)c(Cl)c2)c(=O)[nH]c1=O` [Compound I15, 2-(3,5-dichloro-4-((2-oxo-2,3-dihydro-1H-benzo[d]imidazol-5-yl)oxy)phenyl)-3,5-dioxo-2,3,4,5-tetrahydro-1,2,4-triazine-6-carbonitrile], for which the EC50 at TRα LBD is 1790 nM; on TRβ LBD it was 854 nM. Also, at TRβ LBD, the “Relative Selectivity TR-α/TR-β” value came out at 2.09.

For `N#Cc1nn(-c2cc(Cl)c(Oc3ccc4[nH]ccc4c3)c(Cl)c2)c(=O)[nH]c1=O` [Compound I16, 2-(4-((1H-indol-5-yl)oxy)-3,5-dichlorophenyl)-3,5-dioxo-2,3,4,5-tetrahydro-1,2,4-triazine-6-carbonitrile], the EC50 on TRα LBD was 532 nM; on TRβ LBD it was 125 nM. For the same compound, on TRβ LBD, the “Relative Selectivity TR-α/TR-β” value came to 4.25.

In the case of `N#Cc1nn(-c2cc(Cl)c(Oc3ccc4cc[nH]c4c3)c(Cl)c2)c(=O)[nH]c1=O` [Compound I17, 2-(4-((1H-indol-6-yl)oxy)-3,5-dichlorophenyl)-3,5-dioxo-2,3,4,5-tetrahydro-1,2,4-triazine-6-arbonitrile], the EC50 stood at 1020 nM on TRα LBD and 135 nM on TRβ LBD. Also, the “Relative Selectivity TR-α/TR-β” value at TRβ LBD stood at 7.50.

Take `CC1(C)C(=O)Nc2ccc(Oc3c(Cl)cc(-n4nc(C#N)c(=O)[nH]c4=O)cc3Cl)cc21` [Compound I19, 2-(3,5-dichloro-4-((3,3-dimethyl-2-oxoindolin-5-yl)oxy)phenyl)-3,5-dioxo-2,3,4,5-tetrahydr 0-1,2,4-triazine-6-carbonitrile]: the EC50 at TRα LBD turned out to be 24 nM. Besides, at TRβ LBD, the response was half-maximal at 6 nM (EC50) and the “Relative Selectivity TR-α/TR-β” value is listed as 3.83.

For `N#Cc1nn(-c2cc(Cl)c(Oc3ccc4[nH]c(=O)oc4c3)c(Cl)c2)c(=O)[nH]c1=O` [Compound I20, 2-(3,5-dichloro-4-((2-oxo-2,3-dihydrobenzo[d]oxazol-6-yl)oxy)phenyl)-3,5-dioxo-2,3,4,5-tetrahydro-1,2,4-triazine-6-carbonitrile], the EC50 at TRα LBD was determined as 8370 nM; at TRβ LBD, 2090 nM. In addition, at TRβ LBD, the “Relative Selectivity TR-α/TR-β” value is on record as 4.01.

On to `Cc1c[nH]c2ccc(Cc3c(Cl)cc(-n4nc(C#N)c(=O)[nH]c4=O)cc3Cl)cc12` [Compound I21, 2-(3,5-dichloro-4-((3-methyl-1H-indol-5-yl)methyl)phenyl)-3,5-dioxo-2,3,4,5-tetrahydro-1,2,4-triazine-6-carbonitrile], for which the EC50 at TRα LBD was 1040 nM; on TRβ LBD it was 86 nM. For the same compound, at TRβ LBD, the “Relative Selectivity TR-α/TR-β” value turned out to be 12.11.

With `CC(=O)OCn1cc(Oc2c(Cl)cc(-n3nc(C#N)c(=O)[nH]c3=O)cc2Cl)cc(C(C)C)c1=O` [Compound I24, (5-(2,6-dichloro-4-(6-cyano-3,5-dioxo-4,5-dihydro-1,2,4-triazin-2 (3H)-yl)phenoxy)-3-isopropyl-2-oxopyridin-1 (2H)-yl)methyl acetate], the 50% effective concentration (EC50) at TRα LBD is above 100000 nM; on TRβ LBD it was 273 nM. Moreover, the “Relative Selectivity TR-α/TR-β” value at TRβ LBD worked out at 366.

For `CC(C)c1nc(Oc2c(Cl)cc(-n3nc(C#N)c(=O)[nH]c3=O)cc2Cl)c[nH]c1=O` [Compound I27, 2-(3,5-dichloro-4-((6-isopropyl-5-oxo-4,5-dihydropyrazin-2-yl)oxy)phenyl)-3,5-dioxo-2,3,4,5-tetrahydro-1,2,4-triazine-6-carbonitrile], the response on TRα LBD was half-maximal at 6410 nM (EC50). Besides, on TRβ LBD, the EC50 was determined as 2260 nM and the “Relative Selectivity TR-α/TR-β” value is reported as 2.83.

As for `CC(C)n1cc(Oc2c(Cl)cc(-n3nc(C#N)c(=O)[nH]c3=O)cc2Cl)c(=O)[nH]c1=O` [Compound I28, 2-(3,5-dichloro-4-((1-isopropyl-2,4-dioxo-1,2,3,4-tetrahydropyrimidin-5-yl)oxy)phenyl)-3,5-dioxo-2,3,4,5-tetrahydro-1,2,4-triazine-6-carbonitrile], the concentration for a half-maximal effect (EC50) is above 100000 nM on TRα LBD and above 10000 nM on TRβ LBD.

As to `CC(C)c1cncn(Cc2c(Cl)cc(-n3nc(C#N)c(=O)[nH]c3=O)cc2Cl)c1=O` [Compound I29, 2-(3,5-dichloro-4-((5-isopropyl-6-oxopyrimidin-1 (6H)-yl)methyl)phenyl)-3,5-dioxo-2,3,4,5-tetrahydro-1,2,4-triazine-6-carbonitrile], the EC50 on TRα LBD was determined as 5230 nM; at TRβ LBD, 6400 nM. Further, the “Relative Selectivity TR-α/TR-β” value at TRβ LBD is 0.82.
